Columns and labels:
[1] = molecular target: T1, ITPKA (Ins(1,4,5)P3-kinase-A) (Homo sapiens, UniProt P23677); assay: coupled optical InsP3-kinase assay (pyruvate kinase/lactate dehydrogenase, NADH) with […] recombinant ITPKA; assay type: biochemical
T1 construct: expressed in bacteria as GFP-His-fusion protein, tags cleaved with TEV protease

[2] = molecular target: F-actin (filamentous actin) (chicken) (UniProt P68139); assay: co-sedimentation; F-actin bundling assay: G-actin in F-actin buffer (20 mM Tris-HCl pH 7.5, 100 mM KCl, 2 mM MgCl2, 1 mM EGTA, 1 mM DTT, 0.5 mM ATP) with or without ITPKA proteins, 20 min at RT, 10,000 g for 20 min at 4°C; about 1 µM F-actin, 0.5 µM ITPKA, 10-fold excess of ITPKA^L34P; supernatant and pellet on Coomassie-stained SDS-PAGE

T1 sequence (P23677 whole entry, the tested form may be a part): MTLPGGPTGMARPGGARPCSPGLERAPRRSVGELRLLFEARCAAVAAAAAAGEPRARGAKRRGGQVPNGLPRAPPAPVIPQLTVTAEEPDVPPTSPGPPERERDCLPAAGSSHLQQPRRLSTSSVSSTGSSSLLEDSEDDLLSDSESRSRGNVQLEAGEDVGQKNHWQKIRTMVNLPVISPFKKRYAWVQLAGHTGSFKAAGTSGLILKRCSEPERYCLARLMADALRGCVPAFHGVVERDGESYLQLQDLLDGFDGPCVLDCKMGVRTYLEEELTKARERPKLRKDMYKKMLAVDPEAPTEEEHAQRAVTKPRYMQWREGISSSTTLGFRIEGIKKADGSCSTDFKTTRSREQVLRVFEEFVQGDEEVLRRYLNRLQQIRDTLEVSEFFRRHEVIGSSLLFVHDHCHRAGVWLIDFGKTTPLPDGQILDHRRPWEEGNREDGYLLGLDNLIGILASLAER
Chain of Ins(1,4,5)P3-kinase-A (ITPKA), wild type (P23677 whole entry): as the sequence (P23677 whole entry, the tested form may be a part) above

IC50 [1] | percent of F-actin bundled [2] | Compound
17 nM |  | C[C@@H]1CN(Cc2cn[nH]c2-c2ccc(C#N)cc2)CCN1c1ccc(C(F)(F)F)cn1 [GNF362]
 | 60% | Ins(1,4,5)P3-kinase-A (ITPKA), wild type (from UniProt P23677 1-461) (enzyme)

Source: paper PMC9912108, “The actin bundling activity of ITPKA mainly accounts for its migration-promoting effect in lung cancer cells” (Bioscience Reports, 2023)
